Assay results reported in patent US10253039B2, “Inhibitors of bacterial DNA gyrase with efficacy against gram-negative bacteria” (priority 2014, dated 2019).
Values after ≈ are worked out from the molar mass of the structure shown.

Columns and labels:
Format in all cases: cell-based
[1] = test system: Salmonella enterica subsp. enterica typhimurium; test: MIC, 20-strain panel; conditions: Salmonella enterica subsp. enterica Typhimurium
In short: (§1)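 Determined via CLSI-guided microdilution: triplicate two-fold compound gradients, a DMSO vehicle column, and cultures seeded 1:10000 in LB from growing cells. Incubation lasted 16-18 hours at 37° C. under shaking, with MIC called as the lowest concentration lacking visible growth.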

Streptococcus pyogenes = test: MIC, 20-strain panel
In short: as §1

E. coli JW5503 (deltolC) = test: MIC, 20-strain panel; conditions: Escherichia coli, E. coli JW5503 (deltolC)
In short: as §1

Streptococcus agalactiae = test: MIC, 20-strain panel
In short: as §1

[2] = test system: Staphylococcus aureus subsp. aureus; test: MIC, 20-strain panel; conditions: Staphylococcus aureus subsp. aureus, read-out: MIC
In short: as §1

[3] = test system: Klebsiella pneumoniae subsp. pneumoniae; test: MIC, 20-strain panel; conditions: Klebsiella pneumoniae subsp. pneumoniae
In short: as §1

[4] = test system: Staphylococcus epidermidis; test: MIC, 20-strain panel
In short: as §1

E. coli MG1655 = test: MIC, 20-strain panel; conditions: Escherichia coli, MG1655, E. coli MG1655; read-out: MIC
In short: as §1

Shigella flexneri = test: MIC, 20-strain panel
In short: as §1

[5] = test system: Staphylococcus saprophyticus subsp. saprophyticus; test: MIC, 20-strain panel
In short: as §1

Edwardsiella tarda = test: MIC, microdilution in 96-well plates
In short: as §1

E. coli BW25113 = test: MIC, microdilution in 96-well plates; conditions: Escherichia coli, BW25113, E. coli BW25113; read-out: MIC
In short: as §1

Row | SMILES | MIC [1] [µg/mL] | MIC (Streptococcus pyogenes) [µg/mL] | MIC (E. coli JW5503 (deltolC)) [µg/mL] | MIC (Streptococcus agalactiae) [µg/mL] | MIC [2] [µg/mL] | MIC [3] [µg/mL] | MIC [4] [µg/mL] | MIC (E. coli MG1655) [µg/mL] | MIC (Shigella flexneri) [µg/mL] | MIC [5] [µg/mL] | MIC (Edwardsiella tarda) [µg/mL] | MIC (E. coli BW25113) [µg/mL]
1 | O=S(=O)(N[C@@H]1CCN(Cc2cn(-c3ccccc3)nn2)C1)c1cccc(OC(F)(F)F)c1 [Compound 129] | > 8 | > 8 | > 8 | > 8 | > 8 | > 8 | > 8 | > 8 | > 8 | > 8 | > 8 | > 8
2 | O=S(=O)(N[C@@H]1CCN(Cc2ccc(OC3CC3)cc2)C1)c1ncc[nH]1 [Compound 130] | ~8 (≈ 22.1 µM) | > 8 | ~8 (≈ 22.1 µM) | > 8 | > 8 | > 8 | > 8 | > 8 | > 8 | > 8 | > 8 | > 8
3 | Cc1ccc(S(=O)(=O)N[C@@H]2CCN(Cc3ccc(-c4ccccc4)cc3)C2)cc1C#N [Compound 131] | > 8 | > 8 | 8 (≈ 18.5 µM) | > 8 | > 8 | > 8 | > 8 | > 8 | > 8 | > 8 | > 8 | > 8
4 | O=S(=O)(N[C@@H]1CCN(Cc2ccc(OC3CC3)cc2)C1)c1ccc(Cl)cn1 [Compound 132] | > 8 | > 8 | > 8 | > 8 | > 8 | > 8 | > 8 | > 8 | > 8 | > 8 | > 8 | > 8
5 | CC(=O)c1cc(S(=O)(=O)N[C@@H]2CCN(Cc3ccc(OC4CC4)cc3)C2)ccc1C [Compound 133] | > 8 | > 8 | > 8 | > 8 | > 8 | > 8 | > 8 | > 8 | > 8 | > 8 | > 8 | > 8
6 | CC(=O)c1cccc(S(=O)(=O)N[C@@H]2CCN(Cc3ccc(OC4CC4)cc3)C2)c1 [Compound 134] | ~8 (≈ 19.3 µM) | > 8 | 4 (≈ 9.65 µM) | > 8 | > 8 | > 8 | > 8 | > 8 | > 8 | > 8 | > 8 | > 8
7 | CC(C)Oc1ccc(CN2CC[C@@H](NS(=O)(=O)c3cc(C(F)(F)F)cc(C(F)(F)F)c3)C2)cc1 [Compound 135] | > 8 | > 8 | 8 (≈ 15.7 µM) | > 8 | > 8 | > 8 | > 8 | > 8 | > 8 | > 8 | > 8 | > 8
8 | CC(C)Oc1ccc(CN2CC[C@@H](NS(=O)(=O)c3ncc[nH]3)C2)cc1 [Compound 136] | > 8 | > 8 | ~8 (≈ 21.9 µM) | > 8 | > 8 | > 8 | > 8 | > 8 | > 8 | > 8 | > 8 | > 8
9 | Cc1ccncc1S(=O)(=O)N[C@@H]1CCN(Cc2ccc(-c3ccccc3)cc2)C1 [Compound 137] | > 8 | > 8 | 2 (≈ 4.91 µM) | > 8 | > 8 | > 8 | > 8 | > 8 | > 8 | > 8 | > 8 | > 8
10 | CC(C)Oc1ccc(CN2CC[C@@H](NS(=O)(=O)c3ccc(C#N)nc3)C2)cc1 [Compound 138] | > 8 | > 8 | > 8 | > 8 | > 8 | > 8 | > 8 | > 8 | > 8 | > 8 | > 8 | > 8
